ChEMBL document CHEMBL1201862, “PubChem BioAssay data set” (2004)
Values belong to the compound of their own block, whether it stands above or below them. The source made the active and inactive calls.

Tests used:
[1] = target: T1, E3 ubiquitin-protein ligase XIAP (Homo sapiens, UniProt P98170); experiment: Counter Screen using XIAP-Bir3 for Chemical Antagonists of Bir1/2 domains of IAP-family anti-apoptotic proteins. [Related pubchem assays (depositor defined):AID1018, AID1449, AID1514, AID1638, AID1749, AID1750, AID488957, AID488963]
T1 sequence (P98170 whole entry): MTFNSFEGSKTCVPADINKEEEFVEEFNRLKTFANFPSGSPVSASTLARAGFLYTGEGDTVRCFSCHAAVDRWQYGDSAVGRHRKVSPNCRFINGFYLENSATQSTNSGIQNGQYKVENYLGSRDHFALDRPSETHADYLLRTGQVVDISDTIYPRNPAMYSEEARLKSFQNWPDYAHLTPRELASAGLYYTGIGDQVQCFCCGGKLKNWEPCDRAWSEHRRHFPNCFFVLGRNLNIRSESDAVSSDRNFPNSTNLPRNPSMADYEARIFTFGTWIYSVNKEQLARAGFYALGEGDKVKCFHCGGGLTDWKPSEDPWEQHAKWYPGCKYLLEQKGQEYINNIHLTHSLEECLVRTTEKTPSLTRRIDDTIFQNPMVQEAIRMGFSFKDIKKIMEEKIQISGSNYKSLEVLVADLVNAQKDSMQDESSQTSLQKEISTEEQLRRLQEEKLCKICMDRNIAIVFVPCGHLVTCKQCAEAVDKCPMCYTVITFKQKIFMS

[2] = target: T1, E3 ubiquitin-protein ligase XIAP; experiment: XIAP antagonists, biochemical, IAP family, fluorescence polarization (AID 1018); type: functional
[3] = target: Sphingosine 1-phosphate receptor 1 (Homo sapiens, UniProt P21453); experiment: Fluorescence-based counterscreen assay for S1P4 agonists: Cell-based dose response high throughput screening assay to identify agonists of the Sphingosine 1-Phosphate Receptor 1 (S1P1). [Related pubchem assays (depositor defined):AID1509, AID1523, AID1801, AID463107, AID463118, AID463119, AID463122, AID463123, AID463129, AID463225, AID504400, AID504460]; type: functional
Sphingosine 1-phosphate receptor 1, sequence (P21453 whole entry, the tested form may be a part): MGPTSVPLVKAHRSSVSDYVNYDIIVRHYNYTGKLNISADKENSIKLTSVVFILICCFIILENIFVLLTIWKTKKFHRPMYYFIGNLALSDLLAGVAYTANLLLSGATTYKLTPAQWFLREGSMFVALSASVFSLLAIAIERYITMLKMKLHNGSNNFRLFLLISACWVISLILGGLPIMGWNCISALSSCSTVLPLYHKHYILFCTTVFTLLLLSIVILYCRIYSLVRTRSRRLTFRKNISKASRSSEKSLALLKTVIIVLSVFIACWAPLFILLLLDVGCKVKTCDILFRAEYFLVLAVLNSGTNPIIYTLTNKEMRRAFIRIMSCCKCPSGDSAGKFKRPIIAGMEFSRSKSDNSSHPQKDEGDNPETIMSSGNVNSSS

[4] = target: T2, RNA-binding protein pos-1 (Caenorhabditis elegans, UniProt G5EF15); experiment: inhibitors of POS-1/mex-3 RNA binding, dose response, biochemical, fluorescence polarization (AID 1964);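 note: purified POS-1 fused to maltose binding protein made in E. coli; potency of compounds blocking POS-1 binding to fluorescent RNA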
T2 sequence (G5EF15 whole entry): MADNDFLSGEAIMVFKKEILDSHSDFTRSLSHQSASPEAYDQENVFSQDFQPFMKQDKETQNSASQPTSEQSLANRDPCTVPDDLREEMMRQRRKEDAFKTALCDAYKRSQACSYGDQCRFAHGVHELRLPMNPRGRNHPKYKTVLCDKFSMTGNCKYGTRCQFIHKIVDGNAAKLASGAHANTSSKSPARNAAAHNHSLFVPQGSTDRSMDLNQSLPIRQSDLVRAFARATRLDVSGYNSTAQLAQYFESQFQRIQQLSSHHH

[5] = Counterscreen for IDE inhibitors: Luminescence-based cell-based high throughput dose response assay to identify compounds that are cytotoxic to HEK cells. [Related pubchem assays: 434962 (Primary screen (IDE inhibitors in singlicate)), 449730 (Counterscreen (Cytotoxicity in triplicate)), 435028 (Confirmation (IDE inhibitors in triplicate)) …; type: functional; conditions: HEK293
[6] = target: T3, Zinc finger protein mex-5 (Caenorhabditis elegans, UniProt Q9XUB2); experiment: MEX-5/TCR-2 RNA interaction inhibitors, dose response, biochemical, C. elegans, fluorescence polarization (AID 1960)
T3 sequence (Q9XUB2 whole entry): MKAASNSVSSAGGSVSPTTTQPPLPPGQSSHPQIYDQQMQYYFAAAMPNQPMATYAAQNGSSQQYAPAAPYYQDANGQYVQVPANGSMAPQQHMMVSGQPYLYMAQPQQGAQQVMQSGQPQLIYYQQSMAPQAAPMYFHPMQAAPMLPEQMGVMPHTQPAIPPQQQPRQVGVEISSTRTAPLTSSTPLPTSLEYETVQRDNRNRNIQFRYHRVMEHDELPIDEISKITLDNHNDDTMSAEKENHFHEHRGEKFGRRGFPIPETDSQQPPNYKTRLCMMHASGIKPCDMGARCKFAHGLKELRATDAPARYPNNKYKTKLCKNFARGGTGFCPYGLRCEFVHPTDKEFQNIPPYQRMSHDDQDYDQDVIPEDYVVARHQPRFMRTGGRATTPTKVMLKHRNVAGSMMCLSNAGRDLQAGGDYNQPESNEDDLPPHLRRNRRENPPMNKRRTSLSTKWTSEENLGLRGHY

[7] = target: T4, Sphingosine 1-phosphate receptor 4 (Homo sapiens, UniProt O95977); experiment: Fluorescence dose response cell-based high throughput screening assay for agonists of the Sphingosine 1-Phosphate Receptor 4 (S1P4). [Related pubchem assays: 1509 (Primary screen.), 1523 (Confirmation screen in triplicates.)]; type: functional
T4 sequence (O95977 whole entry): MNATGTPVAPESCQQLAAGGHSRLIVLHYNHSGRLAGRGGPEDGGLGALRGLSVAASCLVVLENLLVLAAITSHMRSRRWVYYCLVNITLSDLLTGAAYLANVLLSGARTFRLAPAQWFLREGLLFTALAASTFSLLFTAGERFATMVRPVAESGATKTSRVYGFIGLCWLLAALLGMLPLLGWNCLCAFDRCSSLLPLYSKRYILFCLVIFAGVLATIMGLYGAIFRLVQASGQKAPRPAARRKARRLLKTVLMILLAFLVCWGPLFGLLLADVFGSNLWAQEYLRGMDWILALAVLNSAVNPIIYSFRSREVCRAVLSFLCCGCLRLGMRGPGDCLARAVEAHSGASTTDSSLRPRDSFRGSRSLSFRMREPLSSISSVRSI

[8] = target: T5, Insulin-degrading enzyme (Homo sapiens, UniProt P14735); experiment: Dose Response: Fluorescence polarization-based cell-based high throughput dose response assay for inhibitors of insulin-degrading enzyme (IDE). [Related pubchem assays: 434962 (Primary screen (IDE inhibitors in singlicate)), 449730 (Counterscreen (Cytotoxicity in triplicate)), 435028 (Confirmation (IDE inhibitors in triplicate)), 434984 (Summary …; type: functional
T5 sequence (P14735 whole entry): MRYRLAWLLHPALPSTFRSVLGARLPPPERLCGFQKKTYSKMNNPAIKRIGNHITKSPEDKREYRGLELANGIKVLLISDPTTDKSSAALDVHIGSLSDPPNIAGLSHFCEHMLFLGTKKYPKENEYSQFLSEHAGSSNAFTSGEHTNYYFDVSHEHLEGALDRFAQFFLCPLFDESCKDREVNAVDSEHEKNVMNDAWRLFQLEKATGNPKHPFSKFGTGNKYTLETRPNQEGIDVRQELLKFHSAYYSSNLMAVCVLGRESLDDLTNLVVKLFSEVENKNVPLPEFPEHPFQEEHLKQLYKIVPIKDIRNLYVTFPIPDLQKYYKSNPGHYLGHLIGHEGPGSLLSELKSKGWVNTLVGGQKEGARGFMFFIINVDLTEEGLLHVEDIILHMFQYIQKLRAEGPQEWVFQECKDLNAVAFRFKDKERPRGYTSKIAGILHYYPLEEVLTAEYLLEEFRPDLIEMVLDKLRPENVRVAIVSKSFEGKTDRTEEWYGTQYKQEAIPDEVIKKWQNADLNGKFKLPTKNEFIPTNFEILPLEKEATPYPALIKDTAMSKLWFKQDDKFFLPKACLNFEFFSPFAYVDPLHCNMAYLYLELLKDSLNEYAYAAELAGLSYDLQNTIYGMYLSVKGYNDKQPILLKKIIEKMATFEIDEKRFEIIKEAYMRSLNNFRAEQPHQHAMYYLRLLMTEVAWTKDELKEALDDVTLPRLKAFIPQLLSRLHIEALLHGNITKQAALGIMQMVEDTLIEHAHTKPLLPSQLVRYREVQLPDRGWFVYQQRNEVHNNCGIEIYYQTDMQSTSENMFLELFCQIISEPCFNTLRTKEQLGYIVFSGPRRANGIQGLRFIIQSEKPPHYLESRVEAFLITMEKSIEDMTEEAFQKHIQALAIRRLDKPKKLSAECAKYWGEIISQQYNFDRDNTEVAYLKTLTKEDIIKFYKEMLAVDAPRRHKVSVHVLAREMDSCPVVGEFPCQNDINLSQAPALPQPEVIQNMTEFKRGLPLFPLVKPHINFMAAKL

[9] = target: CAAX prenyl protease 2 (Homo sapiens, UniProt Q9Y256); experiment: human Rce1 protease inhibitors, dose response, biochemical, yeast membranes, quenched-peptide fluorescence, cherry-pick (AID 588849)
CAAX prenyl protease 2, sequence (Q9Y256 whole entry): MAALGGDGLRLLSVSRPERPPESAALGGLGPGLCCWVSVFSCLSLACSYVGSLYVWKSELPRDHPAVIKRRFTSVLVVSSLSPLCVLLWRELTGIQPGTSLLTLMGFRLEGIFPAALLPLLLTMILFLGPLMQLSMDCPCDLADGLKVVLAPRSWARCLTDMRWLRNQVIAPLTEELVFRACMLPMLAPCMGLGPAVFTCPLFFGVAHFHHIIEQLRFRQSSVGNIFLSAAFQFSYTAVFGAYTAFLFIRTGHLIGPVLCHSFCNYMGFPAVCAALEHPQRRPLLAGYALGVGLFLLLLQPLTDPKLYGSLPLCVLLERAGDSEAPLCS

[10] = target: Kappa-type opioid receptor (Homo sapiens, UniProt P41145); experiment: SAR analysis of small molecule agonists of the kappa opioid receptor via a luminescent beta-arrestin assay - Set 3. [Related pubchem assays (depositor defined):AID1777, AID1785, AID1786, AID1966, AID2133, AID2136, AID2284, AID2500]; type: functional
Kappa-type opioid receptor, sequence (P41145 whole entry): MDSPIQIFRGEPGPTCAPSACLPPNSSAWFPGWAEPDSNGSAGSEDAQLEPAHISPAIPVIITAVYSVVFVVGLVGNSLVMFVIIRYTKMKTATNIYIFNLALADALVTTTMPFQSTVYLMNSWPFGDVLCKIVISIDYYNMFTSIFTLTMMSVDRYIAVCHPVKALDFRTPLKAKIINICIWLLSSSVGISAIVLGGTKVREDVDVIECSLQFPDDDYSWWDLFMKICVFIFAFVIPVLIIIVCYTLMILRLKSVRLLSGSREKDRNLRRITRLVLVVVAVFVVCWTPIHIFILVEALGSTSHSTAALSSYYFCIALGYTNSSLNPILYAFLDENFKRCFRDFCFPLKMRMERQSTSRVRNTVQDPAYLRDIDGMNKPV

[11] = target: Voltage-dependent T-type calcium channel subunit alpha-1H (Homo sapiens, UniProt O95180); experiment: Cav3.2 T-type channel inhibitors, synthesized analogs, SAR follow-up, cell-based, synthetic library set 2, HEK293 HH8, Fluo-4 (AID 493023); type: functional
Voltage-dependent T-type calcium channel subunit alpha-1H, sequence (O95180 whole entry): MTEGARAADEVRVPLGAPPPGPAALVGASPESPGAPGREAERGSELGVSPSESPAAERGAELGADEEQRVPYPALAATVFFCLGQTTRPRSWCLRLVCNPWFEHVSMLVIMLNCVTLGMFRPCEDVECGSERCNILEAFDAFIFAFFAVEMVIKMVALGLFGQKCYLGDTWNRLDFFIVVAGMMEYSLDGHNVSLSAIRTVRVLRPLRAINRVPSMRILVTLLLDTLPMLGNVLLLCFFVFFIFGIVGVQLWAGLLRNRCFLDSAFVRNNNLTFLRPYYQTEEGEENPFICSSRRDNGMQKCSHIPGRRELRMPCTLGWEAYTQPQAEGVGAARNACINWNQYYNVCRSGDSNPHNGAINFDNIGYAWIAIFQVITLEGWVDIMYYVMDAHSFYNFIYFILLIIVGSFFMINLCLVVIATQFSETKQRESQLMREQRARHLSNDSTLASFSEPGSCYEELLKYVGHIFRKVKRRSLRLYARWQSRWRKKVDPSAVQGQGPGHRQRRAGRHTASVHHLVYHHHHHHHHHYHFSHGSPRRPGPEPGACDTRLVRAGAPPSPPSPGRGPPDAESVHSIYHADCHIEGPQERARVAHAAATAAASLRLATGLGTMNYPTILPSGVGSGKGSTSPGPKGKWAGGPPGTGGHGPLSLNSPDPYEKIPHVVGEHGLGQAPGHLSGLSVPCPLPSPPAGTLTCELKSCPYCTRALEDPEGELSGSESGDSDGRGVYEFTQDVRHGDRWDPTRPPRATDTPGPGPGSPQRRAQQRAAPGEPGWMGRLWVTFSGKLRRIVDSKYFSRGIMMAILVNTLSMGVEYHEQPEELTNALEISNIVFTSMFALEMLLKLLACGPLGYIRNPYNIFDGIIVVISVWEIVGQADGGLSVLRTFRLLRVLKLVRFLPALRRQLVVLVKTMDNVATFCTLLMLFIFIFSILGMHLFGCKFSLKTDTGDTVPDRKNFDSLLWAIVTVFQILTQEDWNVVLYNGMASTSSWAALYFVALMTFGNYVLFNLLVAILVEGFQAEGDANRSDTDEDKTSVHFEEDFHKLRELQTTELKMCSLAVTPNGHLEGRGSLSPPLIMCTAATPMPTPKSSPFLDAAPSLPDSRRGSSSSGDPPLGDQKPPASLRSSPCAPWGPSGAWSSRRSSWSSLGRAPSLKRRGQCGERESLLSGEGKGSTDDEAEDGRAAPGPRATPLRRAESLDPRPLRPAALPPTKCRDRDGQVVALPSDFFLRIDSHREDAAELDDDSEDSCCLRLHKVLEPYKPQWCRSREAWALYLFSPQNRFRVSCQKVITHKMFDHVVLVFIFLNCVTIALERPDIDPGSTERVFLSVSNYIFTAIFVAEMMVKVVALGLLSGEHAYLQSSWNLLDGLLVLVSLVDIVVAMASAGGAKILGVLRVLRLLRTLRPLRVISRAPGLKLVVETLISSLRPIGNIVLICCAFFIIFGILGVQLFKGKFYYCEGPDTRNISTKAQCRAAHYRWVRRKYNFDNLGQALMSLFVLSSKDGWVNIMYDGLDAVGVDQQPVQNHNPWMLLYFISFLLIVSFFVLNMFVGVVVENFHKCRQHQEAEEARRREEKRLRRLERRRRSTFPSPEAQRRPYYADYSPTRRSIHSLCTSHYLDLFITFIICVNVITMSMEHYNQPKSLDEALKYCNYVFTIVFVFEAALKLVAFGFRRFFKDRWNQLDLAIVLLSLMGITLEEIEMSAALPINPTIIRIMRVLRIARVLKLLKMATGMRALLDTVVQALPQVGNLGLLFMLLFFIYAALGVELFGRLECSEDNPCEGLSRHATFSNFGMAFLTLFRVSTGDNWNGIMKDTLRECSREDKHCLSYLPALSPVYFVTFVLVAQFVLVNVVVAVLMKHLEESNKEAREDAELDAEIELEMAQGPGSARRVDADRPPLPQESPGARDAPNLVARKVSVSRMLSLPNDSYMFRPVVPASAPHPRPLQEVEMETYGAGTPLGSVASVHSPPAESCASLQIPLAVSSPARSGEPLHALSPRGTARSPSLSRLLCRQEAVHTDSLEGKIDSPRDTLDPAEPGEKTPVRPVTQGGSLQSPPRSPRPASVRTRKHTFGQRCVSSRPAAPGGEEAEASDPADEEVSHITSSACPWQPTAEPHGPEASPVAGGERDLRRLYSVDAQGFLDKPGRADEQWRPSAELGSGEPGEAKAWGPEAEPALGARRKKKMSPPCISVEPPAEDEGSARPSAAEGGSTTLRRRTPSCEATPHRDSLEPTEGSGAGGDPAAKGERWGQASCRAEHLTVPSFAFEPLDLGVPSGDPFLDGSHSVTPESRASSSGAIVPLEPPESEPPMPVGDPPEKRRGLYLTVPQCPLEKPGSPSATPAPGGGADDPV

IC50 [1]: > 100 µM (inactive)
IC50 [2]: > 100 µM (not active)
SMILES: C=CCNC(=O)/C(C#N)=C/c1cn(-c2ccccc2)nc1-c1ccc(OC)c([N+](=O)[O-])c1

SMILES: COc1ccc(C2CC(c3cccs3)=NN2c2ccc(C=O)cc2)cc1 (stereo unspecified)
EC50 [3]: 12.5 µM (inactive)
EC50 [4]: 18.3 µM (active)
IC50 [5]: 41.2 µM (not active)
EC50 [6]: 24.6 µM (active)
EC50 [7]: 8.63 µM (active)
IC50 [8]: > 55.9 µM (not active)
AC50 [9]: 8.53 µM (active)

EC50 [10]: 8.51 µM (active)
SMILES: Brc1ccc(CSc2nnc(-c3ccccn3)n2Cc2cccnc2)cc1

EC50 [11]: 10 µM (active)
SMILES: CC(C)(C)CCN1CCC[C@@H](NC(=O)c2ccc(Cl)cc2Cl)C1
